The text below walks through data of patent US9408871B2, “Methods for inhibiting complement activation and uses thereof” (THE UNIVERSITY OF BRITISH COLUMBIA, priority 2013, dated 2016).

Test [1] deals with choroidal endothelial cells (CEC; RF/6A). Briefly: protection against H2O2 oxidative stress, microscopy. The format is cell-based. The following applies: 100 μM to 1000 μM, H2O2 24 hours. How it is done:
Using cultured cell lines as models of choroidal endothelial cells (CEC; RF/6A)^73 and retinal pigmented epithelial cells (ARPE-19)^74, we tested whether polyphosphate (polyP) could protect against stress-induced alterations in cell survival and deposition of terminal complement activation products (C5b-9).
CEC (FIG. 21) or ARPE-19 (FIG. 22) cells were grown to ˜80% confluence in DMEM+10% serum, and then incubated with varying concentration of hydrogen peroxide (H2O2) for 24 hours in the presence of varying concentrations of polyP1000.

In test [2] the target is T1, C5b,6 (Homo sapiens, UniProt P01031+P13671).
T1 construct: C5 convertase that cleaves C5 into C5a and C5b; human plasma-derived C5b,6, C7, C8, and C9; purchased Complement Technology, Inc. (Tyler, Tex., USA); host or cells: human plasma
Briefly: analytic gel filtration. The note with it: 10 mM. The class given is binding. The method, then: Proteins were stored in their stock solution buffers. The C5b,6 buffer consisted of 10 mM HEPES, 120 mM NaCl, pH 7.2. The C7 buffer consisted of 10 mM Na3PO4, 145 mM NaCl, at pH 7.3 (PBS). The buffers were filtered through a 0.22 μm pore diameter Stericup and Steritop Express™ PLUS filter from Millipore (Billerica, Mass., USA).
Proteins were thawed at 37° C. for 10 min. An excess amount of protein was removed from the stock vial and transferred to a clean 600 μL microtube. C7 was diluted to […]. The proteins were centrifuged at 20,817 g for 15 min and under a Class 2A Biosafety Cabinet, 100 μL fractions were transferred to clean microtubes. The following samples were analyzed by gel filtration:
For all samples, 20 μg of the protein in 100 μL of their respective buffers was prepared. For samples containing polyphosphate, 8 μL of 400 mM polyP>1000 was mixed with 2 μL of 5× concentrated HBS (for C5b,6) or PBS (for C7), yielding a solution of 320 mM polyP>1000 in HBS or PBS. 3.13 μL of the polyphosphate solution was added to 100 μL of either C5b,6 or C7, for a final polyP>1000 concentration of 9.71 mM. […]
The gel filtration apparatus, ÄKTAmicro System from G.E. Healthcare (Buckinghamshire, UK), was equilibrated with either HBS (0.22 μm filtered) for C5b,6 or PBS (0.22 μm filtered) for C7 for at least 1 hour, at 5 μL per minute. […] Protein was monitored with UV absorbance at 280 nm. […]

Test [3] concerns C5b,6, C5, C6, C7, thrombin. Briefly: differential scanning fluorimetry (DSF), all proteins tested. The class given is binding. The following applies: 1 mM. The method, then: For DSF, 25 μL reaction mixes consisting of 0.4 mg/mL protein (0.14 mg/mL for C5b,6), varying concentrations of polyphosphate diluted in HBS (20 mM HEPES, 150 mM NaCl, pH 7.4), and 5× SYPRO Orange were loaded into MicroAmp Fast Optical 96-well Reaction Plates (Applied Biosystems). Samples were heat denatured in an Applied Biosystems StepOnePlus Real-Time PCR System using a ramp configuration starting at 25° C. and increasing at 1 C.° min^−1 to 95° C. Fluorescence (in relative fluorescence units, RFU) was measured every 30 seconds^38. Data for each curve were normalized to the maximum and the minimum of the curve.
In another approach, differential scanning fluorimetry (DSF) was used to determine the thermal stability of the complement proteins in the presence and absence of polyphosphate. This technique involves heat-denaturing proteins and exposing internal hydrophobic regions to the aqueous environment, which are detected by the fluorescent dye SYPRO Orange^38. Interactions between a protein and a binding partner often change the thermal stability of the protein, observed as a shift in the melting (denaturation) curve. C5b,6, C5, C6, and C7 were individually incubated with a range of concentrations of polyphosphate>1000 and relative fluorescence (RFU) was measured as the proteins were thermally denatured. An increase in RFU indicates protein denaturation. […]
(In general: In DSF a fluorescence change marks the thermal transition of the protein.)

T1 sequence (P01031 19-673 limits assumed): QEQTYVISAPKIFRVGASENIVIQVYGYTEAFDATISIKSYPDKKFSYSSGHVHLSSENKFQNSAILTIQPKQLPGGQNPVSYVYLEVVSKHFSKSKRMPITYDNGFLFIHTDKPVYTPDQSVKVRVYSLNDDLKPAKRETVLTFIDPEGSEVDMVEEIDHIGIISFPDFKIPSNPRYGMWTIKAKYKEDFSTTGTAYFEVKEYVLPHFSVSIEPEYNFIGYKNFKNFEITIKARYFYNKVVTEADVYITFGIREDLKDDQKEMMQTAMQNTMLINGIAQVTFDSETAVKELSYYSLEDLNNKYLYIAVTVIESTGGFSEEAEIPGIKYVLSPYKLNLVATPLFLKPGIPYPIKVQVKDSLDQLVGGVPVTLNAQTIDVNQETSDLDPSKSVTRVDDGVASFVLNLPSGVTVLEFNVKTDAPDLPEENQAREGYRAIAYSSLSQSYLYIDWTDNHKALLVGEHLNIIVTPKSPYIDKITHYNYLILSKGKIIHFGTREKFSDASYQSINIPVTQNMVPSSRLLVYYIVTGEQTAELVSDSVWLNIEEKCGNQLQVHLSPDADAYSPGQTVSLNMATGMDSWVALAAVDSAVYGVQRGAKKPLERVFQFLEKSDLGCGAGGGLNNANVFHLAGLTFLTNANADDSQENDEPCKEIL
T1 sequence (P01031 752-1676 limits assumed): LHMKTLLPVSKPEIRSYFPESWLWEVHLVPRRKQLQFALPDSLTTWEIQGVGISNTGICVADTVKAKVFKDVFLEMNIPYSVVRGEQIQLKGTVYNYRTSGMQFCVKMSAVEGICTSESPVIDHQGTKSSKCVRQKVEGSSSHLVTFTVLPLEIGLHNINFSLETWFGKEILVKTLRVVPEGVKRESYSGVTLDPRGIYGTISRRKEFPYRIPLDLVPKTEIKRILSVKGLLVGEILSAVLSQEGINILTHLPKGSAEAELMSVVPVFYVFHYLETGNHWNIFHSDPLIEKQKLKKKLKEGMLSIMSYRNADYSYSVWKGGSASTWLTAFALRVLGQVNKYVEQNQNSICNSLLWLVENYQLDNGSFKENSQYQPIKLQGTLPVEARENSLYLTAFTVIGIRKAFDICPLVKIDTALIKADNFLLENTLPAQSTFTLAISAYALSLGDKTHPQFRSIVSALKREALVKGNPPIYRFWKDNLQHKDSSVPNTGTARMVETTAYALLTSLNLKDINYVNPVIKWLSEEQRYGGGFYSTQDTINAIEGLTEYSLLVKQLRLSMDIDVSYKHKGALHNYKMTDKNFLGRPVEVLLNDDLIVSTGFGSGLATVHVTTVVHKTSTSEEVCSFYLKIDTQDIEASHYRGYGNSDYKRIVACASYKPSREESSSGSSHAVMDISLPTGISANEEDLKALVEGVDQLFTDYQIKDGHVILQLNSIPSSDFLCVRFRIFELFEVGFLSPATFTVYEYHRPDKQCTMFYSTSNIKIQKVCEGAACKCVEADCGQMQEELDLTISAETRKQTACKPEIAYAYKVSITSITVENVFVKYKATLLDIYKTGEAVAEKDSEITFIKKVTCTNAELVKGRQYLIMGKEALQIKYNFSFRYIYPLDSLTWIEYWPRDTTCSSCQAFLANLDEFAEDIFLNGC
T1 sequence (P13671 22-934): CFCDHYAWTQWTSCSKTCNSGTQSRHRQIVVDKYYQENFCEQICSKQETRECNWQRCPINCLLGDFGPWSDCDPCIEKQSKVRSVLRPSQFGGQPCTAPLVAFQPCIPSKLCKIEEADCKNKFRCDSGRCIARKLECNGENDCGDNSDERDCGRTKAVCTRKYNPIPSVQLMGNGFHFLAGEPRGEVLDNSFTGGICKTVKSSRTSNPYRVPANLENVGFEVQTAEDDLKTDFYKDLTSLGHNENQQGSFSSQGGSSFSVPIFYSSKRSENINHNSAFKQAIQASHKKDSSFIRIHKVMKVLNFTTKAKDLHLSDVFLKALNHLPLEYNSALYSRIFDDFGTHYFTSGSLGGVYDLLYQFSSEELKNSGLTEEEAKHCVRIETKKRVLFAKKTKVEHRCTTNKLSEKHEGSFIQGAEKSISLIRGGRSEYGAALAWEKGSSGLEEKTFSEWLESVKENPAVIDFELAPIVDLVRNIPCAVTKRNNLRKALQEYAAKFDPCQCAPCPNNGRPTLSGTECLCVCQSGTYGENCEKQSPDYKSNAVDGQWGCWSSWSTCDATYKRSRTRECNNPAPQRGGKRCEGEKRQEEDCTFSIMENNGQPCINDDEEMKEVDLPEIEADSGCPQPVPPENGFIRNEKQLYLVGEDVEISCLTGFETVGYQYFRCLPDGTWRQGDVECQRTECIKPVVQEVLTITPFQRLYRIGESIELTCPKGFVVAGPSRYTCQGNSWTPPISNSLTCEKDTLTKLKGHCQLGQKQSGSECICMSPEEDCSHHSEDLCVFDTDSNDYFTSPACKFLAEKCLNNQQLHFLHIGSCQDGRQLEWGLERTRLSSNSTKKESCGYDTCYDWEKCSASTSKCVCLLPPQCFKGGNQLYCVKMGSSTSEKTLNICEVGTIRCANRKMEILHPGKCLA

On to `O=P(O)(O)O` [P1, Orthophosphate], for which the “protective effect against H2O2 oxidative stress, CEC” value in test [1] was “No effect was observed”. Besides, the “effect on C5b,6 elution profile in gel filtration” value in test [2] is “did not affect the retention time or elution profile”. Also, in test [3], the “effect on thermal stability (DSF)” value is “had no effect on the thermal stability”.
